Data on 51 molecules can be found in BindingDB's records for doi:10.7270/Q23F4N3R (Burnham Center For Chemical Genomics, 2011).

Bounds are passed on as bounds.

The nature of one experiment: HK1 enzyme inhibitors – biochemical, selectivity assay for HKDC1 inhibitor project, dose response (AID 504763).
Details: not given
As for `CCC1=NN2C(=N)/C(=C\c3ccc(OCc4cc(=O)n5nc(CC)sc5n4)c(OC)c3)C(=O)N=C2S1` [2-ethyl-7-({4-[(E)-(2-ethyl-5-imino-7-oxo-5H-[1,3,4]thiadiazolo[3,2-a]pyrimidin-6(7H)-ylidene)methyl]-2-methoxyphenoxy}methyl)-5H-[1,3,4]thiadiazolo[3,2-a]pyrimidin-5-one], the IC50 (in general, the concentration that inhibits the measured activity by half) is greater than 80 µM.
For the molecule `CC(C)(C)c1c(Cl)c(O)c(-c2ccccc2)c(=O)n1-c1ccccc1` [2-tert-butyl-3-chloranyl-6-oxidanyl-1,5-diphenyl-pyridin-4-one], the half-maximal inhibitory concentration (IC50) was greater than 80 µM.
On the same count and under the same terms, in the case of `COCc1cc(C2C(C(=O)c3ccco3)C(=O)C(=O)N2CCOCCO)ccc1O` (stereo unspecified) [3-(furan-2-carbonyl)-4-hydroxy-1-[2-(2-hydroxyethoxy)ethyl]-2-[4-hydroxy-3-(methoxymethyl)phenyl]-2H-pyrrol-5-one] it was greater than 80 µM; in that of `O=C1C(=O)c2c(C(=O)c3ccccc3)coc2-c2ccccc21` [3-(phenylcarbonyl)benzo[g][1]benzofuran-4,5-dione], greater than 80 µM; in that of `Cc1ccc(S(=O)(=O)N=C2C=C(Nc3cccc(C(=O)O)c3)C(=O)c3ccccc32)c(C)c1` [3-[[(4E)-4-(2,4-dimethylphenyl)sulfonylimino-1-oxo-2-naphthalenyl]amino]benzoic acid], 11 µM.
The same measure, in the same setting: for `O=C1C=C(c2c(O)ccc3ccccc23)c2ccccc2C1=O` [4-(2-hydroxy-1-naphthalenyl)naphthalene-1,2-dione] the value was 5.1 µM; for `Cc1ccc(S(=O)(=O)N=C2C=C(Sc3nnc[nH]3)C(=O)c3ccccc32)cc1` [4-Methyl-N-[4-oxo-3-(2H-[1,2,4]triazol-3-ylsulfanyl)-4H-naphthalen-1-ylidene]-benzenesulfonamide], 3.29 µM; for `CCOc1ccc(/C=C2/SC(=S)N(CCC(=O)Nc3ccc(C(=O)O)cc3)C2=O)cc1` [4-[3-[(5E)-5-[(4-ethoxyphenyl)methylidene]-4-oxo-2-sulfanylidene-1,3-thiazolidin-3-yl]propanoylamino]benzoic acid], greater than 80 µM.
The same measure, in the same setting: for `Cc1cc(Oc2ccc(C(C)(C)C)cc2)nc(N2CCOCC2)n1` [4-[4-(4-tert-butylphenoxy)-6-methylpyrimidin-2-yl]morpholine] the value was greater than 80 µM.
As to `Cc1ccccc1NC1=CC(=NS(=O)(=O)c2ccc(C(=O)O)cc2)c2ccccc2C1=O` [4-[(E)-[3-(2-methylanilino)-4-oxonaphthalen-1-ylidene]amino]sulfonylbenzoic acid], half-maximal inhibition (IC50) was put at 2.84 µM. This counts as single-digit micromolar.
In turn, `CC(C)c1ccc(S(=O)(=O)N=C2C=C(Sc3nnc[nH]3)C(=O)c3ccccc32)cc1` [4-isopropyl-N-[(1Z)-4-oxo-3-(1H-1,2,4-triazol-3-ylthio)naphthalen-1(4H)-ylidene]benzenesulfonamide] displayed an IC50 of 5.87 µM. Compared with the last molecule, the IC50 is about 2.1-fold higher.
Still for that read-out and setting: in the case of `COc1ccc(S(=O)(=O)Nc2ccc(O)c3ccccc23)cc1` [4-methoxy-N-(4-oxidanylnaphthalen-1-yl)benzenesulfonamide] it was greater than 80 µM.
Still for that read-out and setting: for `O=C1C=C(N2CCCCC2)c2ccccc2C1=O` [4-piperidin-1-ylnaphthalene-1,2-dione] the value was 2.39 µM; for `CC1=NOC(=O)/C1=C\c1ccc(-c2ccc(Cl)cc2Cl)o1` [4-{[5-(2,4-dichlorophenyl)-2-furyl]methylene}-3-methyl-5(4H)-isoxazolone], greater than 80 µM; for `Cc1cc(C)n2nc(SCc3nnc(SCc4ccccc4C)s3)nc2n1` [5,7-dimethyl-2-[({5-[(2-methylbenzyl)sulfanyl]-1,3,4-thiadiazol-2-yl}methyl)sulfanyl][1,2,4]triazolo[1,5-a]pyrimidine], 3.71 µM.
Still for that read-out and setting: in the case of `O=C1C=CC(=O)c2c(O)c(CO)c(CO)c(O)c21` [5,8-dihydroxy-6,7-bis(hydroxymethyl)naphthalene-1,4-dione] it was greater than 80 µM.
On to `CCC(c1ccccc1)C(CC)c1cc(O)c(O)c(O)c1` (stereo unspecified) [5-(4-phenylhexan-3-yl)benzene-1,2,3-triol], for which the half-inhibitory concentration (IC50) is greater than 80 µM.
On the same count and under the same terms, for `Cc1cccc(N2C(=O)NC(=O)C(=Cc3ccc4c(c3)CCCN4Cc3ccccc3)C2=O)c1` [5-[1-(1-Benzyl-1,2,3,4-tetrahydro-quinolin-6-yl)-meth-(E)-ylidene]-1-m-tolyl-pyrimidine-2,4,6-trione] the value was greater than 80 µM.
The same measure, in the same setting: for `COC1=C(Br)C(=O)c2ncccc2C1=O` [7-bromo-6-methoxyquinoline-5,8-dione] the value was 4.89 µM.
Same read-out and setting: in the case of `COc1ccc2[nH]c3c4c(ccc3c2c1)C(=O)C=CC4=O` [8-methoxy-11H-benzo[a]carbazole-1,4-dione] it was greater than 80 µM; in that of `Cc1ccc(C)c(-n2c3nc(=O)[nH]c(=O)c-3cc3cc([N+](=O)[O-])ccc32)c1` [10-(2,5-Dimethyl-phenyl)-7-nitro-10H-pyrimido[4,5-b]quinoline-2,4-dione], greater than 80 µM.
In turn, `Cc1ccc(-n2c3nc(=O)[nH]c(=O)c-3cc3cc([N+](=O)[O-])ccc32)cc1` [10-(4-methylphenyl)-7-nitropyrimido[4,5-b]quinoline-2,4-dione] registered an IC50 of 19.4 µM.
Same read-out and setting: for `COC1=CC(/C=C(\C#N)c2nc3ccc(C)cc3[nH]2)C=C([N+](=O)[O-])C1=O` (stereo unspecified) [(2Z,3E)-3-(3-methoxy-5-nitro-4-oxocyclohexa-2,5-dien-1-ylidene)-2-(5-methyl-1,3-dihydrobenzimidazol-2-ylidene)propanenitrile] the value was 18 µM; for `COC(=O)[C@@H]1[C@@H](C(=O)OC)C2(c3ccccc3-c3ccccc32)N(c2ccc(Cl)cc2)N1C#N` [(3'S,4'R)-1'-(4-chlorophenyl)-2'-cyanospiro[fluorene-9,5'-pyrazolidine]-3',4'-dicarboxylic acid dimethyl ester], greater than 80 µM; for `O=C(C=Cc1ccc(Br)cc1)NC(=S)Nc1ccc(S(=O)(=O)Nc2nccs2)cc1` [(E)-3-(4-bromophenyl)-N-[[4-(1,3-thiazol-2-ylsulfamoyl)phenyl]carbamothioyl]prop-2-enamide], greater than 80 µM.
As to `CNCc1ccccc1Sc1cc(O)ccc1O` [(Z)-2-butenedioic acid;2-[[2-(methylaminomethyl)phenyl]thio]benzene-1,4-diol], the IC50 came to 4.58 µM.
The same measure, in the same setting: in the case of `CCCCC[C@H](O)/C=C/[C@@H]1[C@@H](C/C=C\CCCC(=O)OC)[C@@H](O)C[C@H]1O` [MLS000028823] it was greater than 80 µM; in that of `CC(C)c1nc2oc3c(NCC4CCCO4)ncnc3c2c2c1COC(C)(C)C2` (stereo unspecified) [MLS000084034], 2.36 µM.
`COc1ncnc2c1oc1nc(C(C)C)c3c(c12)CC(C)(C)OC3` [MLS000084533] registered a concentration for half-maximal inhibition (IC50) of 12.5 µM.
Same read-out and setting: for `N#Cc1ccc(CSc2nnc(NC(=O)c3ccc4ncsc4c3)s2)cc1` [MLS000334839] the value was greater than 80 µM.
The molecule `O=C1C(Nc2ccccc2)=CC(=NS(=O)(=O)c2cccs2)c2ccccc21` [MLS000374486] came in with an IC50 of 6.56 µM.
Molecule `O=C1c2ccccc2-c2onc3ccc(Oc4ccccc4)c1c23` [MLS000525578] came in with a half-maximal inhibitory concentration (IC50) greater than 80 µM.
As to `O=[N+]([O-])c1ccc(Sc2nc3ccccc3o2)c([N+](=O)[O-])c1` [MLS000532050], the IC50 was greater than 80 µM.
Regarding `CCCc1nc2oc3c(OC)ncnc3c2c2c1COC(C)(C)C2` [MLS000559436], the IC50 was 18.5 µM.
The same measure, in the same setting: for `COc1cc2c(cc1OC)-c1c(OC)c(OC)c(OC)c3ccnc(c13)C2=O` [MLS000574936] the value was 10.1 µM; for `COc1cc(/C=C2\SC(c3ccc(C)cc3)=NC2=O)ccc1O` [MLS000579809], greater than 80 µM.
Same read-out and setting: in the case of `COc1cc(C2c3c([nH]c(=O)[nH]c3=O)Nc3ccc4ccccc4c32)cc(OC)c1OC` (stereo unspecified) [MLS000663320] it was greater than 80 µM.

The same experiment, now with this note: inactive by the depositor's call.
As for `Cc1oc2c(c1C(=O)c1ccccc1)C(=O)C(=O)c1ccccc1-2` [2-methyl-3-(phenylcarbonyl)benzo[g][1]benzofuran-4,5-dione], 78.3 µM corresponded to half-maximal inhibition (IC50). This counts as double-digit micromolar.
`Cc1oc2c(c1C(=O)c1ccc(Cl)cc1)C(=O)C(=O)c1ccccc1-2` [3-(4-Chloro-benzoyl)-2-methyl-naphtho[1,2-b]furan-4,5-dione] displayed an IC50 of 40 µM.
Turning to `COc1ccc(C(=O)c2coc3c2C(=O)C(=O)c2ccccc2-3)cc1` [3-(4-Methoxy-benzoyl)-naphtho[1,2-b]furan-4,5-dione], half-maximal inhibition (IC50) required 27.2 µM.
As to `CCCCNC(=O)c1sc(=S)n2c1[nH]c(=O)c1ccc(C(=O)NCCc3ccc(OC)c(OC)c3)cc12` [3-N-butyl-8-N-[2-(3,4-dimethoxyphenyl)ethyl]-5-oxo-1-sulfanylidene-4H-[1,3]thiazolo[3,4-a]quinazoline-3,8-dicarboxamide], the IC50 stood at 21.2 µM.
In the case of `CCN(CC)CCNc1cc(C)nc2c1C(=O)C(=O)C=C2N1CCCCC1` [4-[2-(diethylamino)ethylamino]-2-methyl-8-piperidin-1-yl-quinoline-5,6-dione], the IC50 was found to be 38.3 µM. Against the preceding molecule, the IC50 is about 1.8-fold higher.
Same read-out and setting: for `COC(=O)c1ccc(NCc2cc(O)ccc2O)cc1` [4-[(2,5-dihydroxyphenyl)methylamino]benzoic acid methyl ester] the value was 21.3 µM.
Still for that read-out and setting: in the case of `CCN(CC)c1ccc2c(c1)oc(=O)c1c(Cl)cc(=O)oc12` [4-chloranyl-8-(diethylamino)pyrano[3,2-c]chromene-2,5-dione] it was 55.4 µM; in that of `Cc1ccc(S(=O)(=O)Nc2c(O)ccc3ccccc23)cc1` [4-methyl-N-(2-oxidanylnaphthalen-1-yl)benzenesulfonamide], 27.4 µM; in that of `COc1cc2c(cc1OC)-c1cc(NCc3ccccn3)nc(=O)n1CC2` [9,10-dimethoxy-2-(2-pyridinylmethylamino)-6,7-dihydropyrimido[6,1-a]isoquinolin-4-one], 67.4 µM.
With `COc1ccc(N2C3=C(CC4=C2CCCC4=O)C(=O)CCC3)cc1` [10-(4-methoxyphenyl)-3,4,6,7,9,10-hexahydro-1,8(2H,5H)-acridinedione], the IC50 worked out at 24 µM.
Same read-out and setting: in the case of `Cc1nc(COC(=O)c2cc(O)c3ccccc3c2O)cs1` [(2-methyl-1,3-thiazol-4-yl)methyl 1,4-bis(oxidanyl)naphthalene-2-carboxylate] it was 25 µM; in that of `CCCc1nc2oc3c(NCC4CCCO4)ncnc3c2c2c1COC(C)(C)C2` (stereo unspecified) [MLS000042555], 31.6 µM.
Consider `CC(C)Nc1nnc(SCC(=O)Nc2ccc3c(c2)C(=O)c2ccccc2C3=O)s1` [MLS000390413], for which half-maximal inhibition (IC50) required 22.3 µM.
`O=C1C(Cl)=C(N2CCCCC2)C(=O)C(Cl)=C1c1cnc(N2CCCCC2)s1` [MLS000550549] returned an IC50 of 71.6 µM. Against the preceding molecule, the IC50 is about 3.2-fold higher.
